Data published in patent publication US6713449B1, “E2F activity inhibitory compounds” (Kyowa Hakko Kogyo Co., Ltd., priority 1996, dated 2004).
Where a SMILES comes first, the peptide text is derived from it. The star is where a group is joined. Lauroyl = CCCCCCCCCCCC(=O)*

Legend:
[1] = target: T1, GST-E2F-1 and GST-DP-1 binding to 32P-labeled E2F probe (Homo sapiens, UniProt Q01094+Q14186); assay: Assay of E2F-DNA binding-inhibiting activity by gel shift assay; settings: 30° C. 30 minutes
T1 construct: a part of human E2F-1 (101-st to 227-th amino acid residues from the N terminus) and GST; a part of the human DP-1 (84-th to 241-th amino acid residues from the N terminus) with GST; made in house; host or cells: Escherichia coli XL1-blue
Procedure: Assay of E2F-DNA Binding-inhibiting Activity by Gel Shift Assay (1-1) Expression of a Fusion Protein of E2F-1 and DP-1 in Escherichia Coli
So as to assay the activity to inhibit E2F-DNA binding, a fusion protein of glutathione-S-transferase (abbreviated as GST hereinbelow) with the genes of human E2F-1 [Cell, 70, 337 (1992); Cell, 70, 351 (1992)] and human DP-1 [Genes Dev., 7, 1850 (1993)] was prepared.
(1-2) Gel Shift Experiments by Using GST-E2F-1 and GST-DP-1
The following two oligonucleotides including the E2F binding sequence, which are complementary sequences to each other;
were added individually at a concentration of 10 μM into a solution comprising 10 mM MgCl2, 5 mM DTT and 50 mM Tris-HCl(pH 7.5), for treatment at 75° C. for 10 minutes, and the resulting solutions were left to stand at ambient temperature while gradually lowering the temperature for annealing. The resulting double-stranded DNA solution (10 μl) was kept in a reaction solution (30 μL) [50 mM Tris-HCl buffer(pH 7.5) containing 10 mM MgCl2, 5 mM dithiothreitol (DTT) 10 units of T4 polynucleotide kinase (manufactured by TaKaRa), 0.2 mCi [γ-^32P]ATP (7,000 Ci/mmol ATP, manufactured by Amersham Co.)] at 37° C. for 60 minutes, to label the 5′ terminus. By adding 0.5 M EDTA (2 μl) to the reaction solution, the reaction was terminated, and thereafter, unreactive [γ-^32P]ATP was removed by using a NickColumn G-50 (manufactured by Pharmacia Co.), to recover E2F probe. Into 20 mM HEPES buffer(pH 7.4)(20 μl) containing 40 mM KCl, 1 mM MgCl2, 0.1 mM EDTA, 0.1% Nonidet P-40, and 1 mM DTT were added 0.1 pmol of ^32P-labeled E2F probe, 100 ng of GST-E2F-1, 100 ng of GST-DP-1, 2 μg of calf thymus DNA and 0 to a 100 μM test compound, for reaction at 30° C. for 30 minutes. After the reaction, the reaction solution was electrophoresed by using 0.5×TBE [2.5 mM Tris-borate buffer, pH 8.3, 0.1 mM EDTA] as an electrophoresis buffer in 4% polyacrylamide gel. GST-E2F-1 and GST-DP-1 proteins were bound to the labeled E2F probe, so that the mobility thereof was reduced. Accordingly, the proteins were detected as upper bands. After electrophoresis, the gel was dried to assay the radioactivity in bands shifting upward, by using an image analyzer Type BAS2000 (manufactured by Fuji Film Co.). The radioactivity in each lane was assayed, to calculate the inhibition ratio, on the basis of the radioactivity of a sample with no test compound contained in the reaction system, according to the following equation.
A: radioactivity in a band shifted in the absence of any test compound
B: radioactivity in a band shifted in the presence of a test compound.

[2] = tested on: E2F dependent transcription (luciferase reporter cell strain E2F-1/Saos-2-1); assay: Assay of activity suppressing E2F responsive transcription (2): reporter cell strain E2F-1/Saos-2-1, Lipofect AMINE; assay type: cell-based, human; settings: luciferase activity corrected with protein concentration
Excerpt: Assay of Activity Suppressing E2F Responsive Transcription (2)
Into the XhoI- and HindIII sites of luciferase reporter vector pluc2 with neomycin (G418) resistant gene [Eur. J. Haematol., 52, 73 (1994)] were inserted an SphI-HindIII fragment composed of the 200 base pairs in the core promoter region of the SV40 initial gene 128-0/5243-5171, base number according to “DNA Tumor Viruses, Molecular Biology of Tumor Viruses, 2nd Ed., Part 2 Revised, Edited by J. Tooze, Cold Spring Harbor Laboratory Press, 1982” and a fragment produced by annealing the following two synthetic oligonucleotides;
and then inserting the annealed product into the XhoI and Asp718 sites of the constructed luciferase vector pSE01uc2, reporter plasmid pE2FII-1luc2 was constructed.
By the following method, the plasmid was introduced into a human osteosarcoma-derived cell strain Saos-2 (ATCC HTB85), and the resulting cell was defined as E2F responsive reporter cell. 2×10^6 cells of the Saos-2 cultured in the presence of 5% CO2 in the medium A at 37° C. were suspended in K-PBS buffer (50 μl) [137 mM KCl, 2.7 mM NaCl, 8.1 mM Na2HPO4, 1.5 mM KH2PO4, 4 mM MgCl2], followed by addition of 1 μg/μl plasmid pE2FII-1 luc2 (4 μg) prepared above. […]

[3] = tested on: human osteosarcoma-derived cell line Saos-2; assay: Assay of growth inhibiting activity on Saos-2 cell (test compound introduced by electric pulse); assay type: cell-based; settings: 100 μM, 40 hours culture, viable cell number
Procedure: Assay of Growth Inhibiting Activity on Saos-2 cell
1×10^6 cells of a human osteosarcoma-derived cell line Saos-2 (ATCC HTB85) cultured in an RPMI 1640 culture medium containing 10% fetal calf serum (manufactured by Nissui Co.; referred to as medium A hereinbelow) in the presence of 5% CO2 at 37° C. were suspended in 50 μl of K-PBS buffer [137 mM KCl, 2.7 mM NaCl, 8.1 mM Na2HPO4, 1.5 mM KH2PO4, and 4 mM MgCl2], followed by addition of a test compound appropriately diluted with K-PBS to a final concentration of 100 μM. The suspension was transferred on a 0.2-cm width cuvette (manufactured by BIO-RAD Laboratories) for loading an electric pulse (conditions: an electric voltage=3 kV/cm, a pulse width=100 μ seconds, a pulse interval=one second, a pulse number=two) by using a Shimadzu cell fusion system SSH-1 [manufactured by Shimadzu Corporation]. After leaving the cuvette to stand for 10 minutes, the cells were recovered and suspended in 3 ml of the medium A, for inoculation on a cell culture dish of a 60-mm diameter(manufactured by Iwaki Glass Co.). […] Based on the cell number with no test compound under load of an electric pulse, the inhibition ratio was calculated by the following equation. […]

[4] = tested on: E2F responsive transcription (human cdc2 promoter-luciferase reporter pcdc21uc2); assay: Assay of activity suppressing E2F responsive transcription (1): human cdc2 promoter luciferase reporter in Saos-2; assay type: cell-based; settings: 100 μM, electroporation, 40 hours, luciferase activity corrected with protein concentration
Procedure: Assay of Activity Suppressing E2F Responsive Transcription (1)
The promoter sequence of human cdc2 gene [EMBO J., 11, 1797 (1992)], which has been reported to have an endogenous E2F responsive sequence and to effect an E2F dependent transcription, was bound to the upstream of the firefly luciferase gene, which was designated as reporter gene.
Two micrograms (2 μg) of the plasmid pcdc21uc2 thus prepared were introduced, together with a test compound (100 μM), into 1×10^6 cells of Saos-2 by electroporation, in the same manner as in the Test Example 2. As in the Test Example 2, the resulting cells were inoculated into a cell culture dish of a 60-mm diameter for culturing in the presence of 5% CO2 at 37° C. for 40 hours, and thereafter, the cells were peeled off and recovered by centrifugation. […] The luciferase activity was assayed as follows; 300 μl of a substrate solution [25 mM glycylglycine buffer(pH 7.8), 15 mM MgSO4, 5 mM ATP, and 0.33 mM luciferin] was automatically injected into a luminometer LB953 (manufactured by Beltold Co.), to assay the luminescence for 10 seconds, which was defined as luciferase activity. […] Based on the luciferase activity (after correction with protein concentration) of a sample with no test compound contained in the reaction system, the inhibition ratio was calculated by the following equation. […]

T1 sequence (Q01094 101-227): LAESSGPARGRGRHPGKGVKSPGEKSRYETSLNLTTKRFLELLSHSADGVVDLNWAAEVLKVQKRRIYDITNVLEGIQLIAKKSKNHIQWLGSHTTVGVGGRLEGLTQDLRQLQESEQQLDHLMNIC
T1 sequence (Q14186 84-241): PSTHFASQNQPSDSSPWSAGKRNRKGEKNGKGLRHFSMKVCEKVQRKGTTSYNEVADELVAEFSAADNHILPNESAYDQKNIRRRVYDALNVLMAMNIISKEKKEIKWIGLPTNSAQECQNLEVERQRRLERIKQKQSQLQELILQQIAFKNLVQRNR

Molecule | Inhibition ratio (%) ([1]; 25 μM test compound) | Inhibition ratio (%) ([1]; 100 μM test compound) | Inhibition ratio (%) ([2]; 1 μM) | Inhibition ratio (%) ([2]; 10 μM) | Inhibition ratio (%) [3] | Inhibition ratio (%) [4] | Inhibition ratio (%) ([1]; 1 μM test compound) | Inhibition ratio (%) ([1]; 10 μM test compound)
CCCCCCCCCCCC(=O)N[C@@H](CC(N)=O)C(=O)N[C@@H](CCC(=O)O)C(=O)N[C@@H](CO)C(=O)N[C@@H](C)C(=O)N[C@@H](Cc1ccc(O)cc1)C(=O)N[C@@H](CC(=O)O)C(=O)N[C@@H](CCC(N)=O)C(=O)N[C@@H](CCCCN)C(=O)N[C@@H](CC(N)=O)C(=O)N[C@H](C(=O)N[C@@H](CCCNC(=N)N)C(=O)N[C@@H](CCCNC(=N)N)C(=O)N[C@@H](CCCNC(=N)N)C(=O)N[C@H](C(=O)N[C@@H](Cc1ccc(O)cc1)C(=O)N[C@@H](CC(=O)O)C(=O)N[C@@H](C)C(=O)N[C@@H](CC(C)C)C(=O)N[C@@H](CC(N)=O)C(=O)N[C@H](C(=O)N[C@@H](CC(C)C)C(=O)N[C@@H](CCSC)C(=O)N[C@@H](C)C(=O)N[C@@H](CCSC)C(=O)N[C@@H](CC(N)=O)C(=O)N[C@H](C(=O)N[C@H](C(=O)N[C@@H](CO)C(N)=O)[C@@H](C)CC)[C@@H](C)CC)C(C)C)C(C)C)[C@@H](C)CC [Compound Ib-3] (Lauroyl-NESAYDQKNIRRRVYDALNVLMAMNIIS-NH2) | 17.9% | 49.5% |  |  |  |  |  | 
Ac-Ala-Arg-Gly-Arg-Gly-Arg-His-Pro-Gly-Lys-Gly-Val-Lys-Ser-Pro-Gly-Glu-Arg-Ser-Arg-Tyr-Glu-Thr-Ser-Leu-Asn-Leu-Thr-Thr-Lys-Arg-Phe-Leu-Glu-Leu-NH2 (Ac-ARGRGRHPGKGVKSPGERSRYETSLNLTTKRFLEL-NH2) [Compound Ic-1] |  |  | 17% | 28% |  |  |  | 
Ac-NESAYDQKNIRRRVYDALNVLMAMNIIS-NH2 [Compound Ib-1] |  | 87.6% |  |  | 73% | 83% | 13.7% | 52.9%
